Assay results as given in patent publication US6432952B1, “Polymorphic form of a tachykinin receptor antagonist” (Merck & Co., Inc., priority 1999, dated 2002).
Like-named read-outs stand apart in the source and are kept apart here.

Tests used:
[1] = Solubility in isopropyl acetate; type: physicochemical
Protocol: Solubility The solubility of Form I of 2-(R)-(1-(R)-(3,5-bis(trifluoromethyl)-phenyl)ethoxy)-4-(5-(dimethylamino)methyl-1,2,3-triazol-4-yl)methyl-3-(S)-(4-fluorophenyl)morpholine hydrochloride in isopropyl acetate at 25° C. was determined to be 7.4±0.3 mg/ml.

[2] = Stability of the crystalline form as neat solid; type: physicochemical
[3] = test system: retching and vomiting induced by cisplatin; assay: Ferret model of cisplatin-induced emesis (Tattersall et al.); type: in vivo

solubility [1]	solubility ([1]; 25 °C, organic solvent or mixture, solubility)	thermodynamic stability of Form I over Form II, from the ratio of the solubilities ([1]; at 25° C., isopropyl acetate)	thermal stability ([2]; as a neat solid)	Compound	thermodynamic stability relative to the other form ([2]; Form I versus Form II)	effect on retching and vomiting induced by cisplatin [3]
10900 ± 1100 µg/mL	7400 ± 300 µg/mL	approximately 0.2 kcal/mol	high degree of thermal stability	C[C@@H](O[C@H]1OCCN(Cc2nn[nH]c2CN(C)C)[C@H]1c1ccc(F)cc1)c1cc(C(F)(F)F)cc(C(F)(F)F)c1.Cl [Form I, 2-(R)-(1-(R)-(3,5-bis(trifluoromethyl)phenyl)ethoxy)-4-(5-(dimethylamino)methyl-1,2,3-triazol-4-yl)methyl-3-(S)-(4-fluorophenyl)morpholine hydrochloride]	thermodynamically more stable than Form II	
				C[C@@H](O[C@H]1OCCN(Cc2nn[nH]c2CN(C)C)[C@H]1c1ccc(F)cc1)c1cc(C(F)(F)F)cc(C(F)(F)F)c1.Cl [compound of the present invention, 2-(R)-(1-(R)-(3,5-bis(trifluoromethyl)phenyl)ethoxy)-4-(5-(dimethylamino)methyl-1,2,3-triazol-4-yl)methyl-3-(S)-(4-fluorophenyl)-morpholine hydrochloride]		attenuate the retching and vomiting induced by cisplatin
